Measurements published in patent publication US12595251B2, “Amidines and amidine analogs for the treatment of bacterial infections and potentiation antibiotics” (GEORGIA STATE UNIVERSITY RESEARCH FOUNDATION, INC., priority 2018, dated 2026).

Experiments:
E. coli = experiment: MIC of compounds against E. coli (OD600, 48 h); type: cell-based; conditions: Escherichia coli; for MIC: MIC = 90% growth inhibition, compound alone; for MIC / inhibition at 12 µM: NA=no activity; for inhibition at 25 µM: read-out: Growth inhibition of E. coli at 25 μM, compound alone at 25 μM, NA=no activity; for inhibition at 50 µM: read-out: Growth inhibition of E. coli at 50 μM, compound alone at 50 μM, NA=no activity; for inhibition at 12 µM: compound alone at 12 μM, read-out: Growth inhibition of E. coli at 12 μM
B. subtilis = experiment: MIC of compounds against B. subtilis (OD600, 48 h); type: cell-based; conditions: Bacillus subtilis; for inhibition at 12 µM: compound alone at 12 μM, read-out: Growth inhibition of B. subtilis at 12 μM; for MIC: MIC = 90% growth inhibition, compound alone; for inhibition at 2 µM: read-out: Growth inhibition of B. subtilis at 2 μM, compound alone at 2 μM; for inhibition at 12.5 µM: compound alone at 12.5 μM, NA=no activity, read-out: Growth inhibition of B. subtilis at 12.5 μM; for inhibition at 6 µM: read-out: Growth inhibition of B. subtilis at 6 μM, compound alone at 6 μM, NA=no activity; for inhibition at 3 µM: read-out: Growth inhibition of B. subtilis at 3 μM, compound alone at 3 μM, NA=no activity
Experimental: Bacteria were then cultured with varying concentration of the compounds shown below for 48 hours, and then bacterial density was measured based on OD600. The procedure to determine the MIC for each compound against B. subtilis was the same except that the bacteria was cultured in nutrient broth. The MIC of each compound against B. subtilis is shown in Table 2 (NA=no activity, --=not tested).

SMILES | inhibition at 25 µM (E. coli) | inhibition at 12 µM (B. subtilis) | inhibition at 6 µM (B. subtilis) | inhibition at 12 µM (E. coli) | other results
N=C(N)c1ccc(OCCCCCCCCOc2ccc(C(=N)N)cc2)cc1 [drawing 774] |  |  |  |  | MIC (E. coli): 25 µM
Cc1cc(-c2nc3cc(C(=N)N)ccc3n2C)sc1-c1ccc(OCCCCOc2ccc(C(=N)N)cc2)cc1 [drawing 775] | 30% | 70% |  |  | 
N=C(N)c1ccc(OCc2cccc(COc3ccc(C(=N)N)cc3)n2)cc1 [drawing 776] |  |  |  |  | inhibition at 50 µM (E. coli): 50%; MIC (B. subtilis): 12.5 µM; inhibition at 2 µM (B. subtilis): 40%
N=C(N)c1ccc(OCOc2ccc(C(=N)N)cc2)cc1 [drawing 777] |  |  | 10% |  | inhibition at 12.5 µM (B. subtilis): 80%
N=C(N)c1ccc(OCCCCCCOc2ccc(C(=N)N)cc2)cc1 [drawing 778] | 70% |  | 40% | 40% | MIC (B. subtilis): 12 µM; inhibition at 2 µM (B. subtilis): 30%
Cc1cc(COc2ccc(C3=NCCN3)cc2)cc(COc2ccc(C3=NCCN3)cc2)c1 [drawing 779] | 25% | 25% | 20% | 10% | 
Cc1cc(COc2ccc(CN)cc2)cc(COc2ccc(CN)cc2)c1 [drawing 780] | 30% | 10% |  | 10% | 
N=C(N)c1ccc(OCc2cc(COc3ccc(C(=N)N)cc3)cc(COc3ccc(C(=N)N)cc3)c2)cc1 [drawing 781] | 60% |  | 80% | 40% | MIC (B. subtilis): 12 µM
Cc1cc(CCc2ccc(C(=N)N)cc2)cc(CCc2ccc(C(=N)N)cc2)c1 [drawing 782] | 20% | 80% | 30% | 10% | 
Cc1cc(OCc2ccc(C(=N)N)cc2)cc(OCc2ccc(C(=N)N)cc2)c1 [drawing 783] | 30% | 20% |  |  | 
CC(C)NC(=N)c1ccc(OCc2cccc(COc3ccc(C(=N)NC(C)C)cc3)c2F)cc1 [drawing 784] | 80% | 80% | 70% | 60% | 
CC(C)NC(=N)c1ccc(OCc2cccc(COc3ccc(C(=N)NC(C)C)cc3F)c2F)c(F)c1 [drawing 785] | 50% | 70% | 60% | 40% | 
CCCNC(=N)c1ccc(COc2cc(C)cc(OCc3ccc(C(=N)NCCC)cc3)c2)cc1 [drawing 786] |  |  |  |  | MIC (B. subtilis): 50 µM; inhibition at 12.5 µM (B. subtilis): 30%; inhibition at 25 µM (B. subtilis; read-out: Growth inhibition of B. subtilis at 25 μM, compound alone at 25 μM): 50%
COc1cc(C(=N)N)ccc1OCc1cc(COc2ccc(C(=N)N)cc2OC)cc(C(C)(C)C)c1 [drawing 788] |  |  | 40% |  | inhibition at 50 µM (E. coli): 80%; inhibition at 3 µM (B. subtilis): 30%
CC(C)(C)c1cc(COc2ccc(C(=N)N)cc2F)cc(COc2ccc(C(=N)N)cc2F)c1 [drawing 789] |  |  |  |  | MIC (E. coli): 50 µM; MIC (B. subtilis): 50 µM
Cc1cc(COc2cccc(C(=N)N)c2)cc(COc2cccc(C(=N)N)c2)c1 [drawing 790] |  |  |  |  | inhibition at 50 µM (E. coli): 80%; MIC (B. subtilis): 50 µM
Cc1cc(CSc2ccc(C(=N)N)cc2)cc(CSc2ccc(C(=N)N)cc2)c1 [drawing 791] |  |  | 40% | 15% | inhibition at 3 µM (B. subtilis): 10%
Cc1cc(CSc2ccc(C3=NCCN3)cc2)cc(CSc2ccc(C3=NCCN3)cc2)c1 [drawing 792] |  |  |  |  | inhibition at 12.5 µM (E. coli; compound alone at 12.5 μM, read-out: Growth inhibition of E. coli at 12.5 μM): 10%
Cc1ccc(COc2ccc(C(=N)N)cc2)cc1COc1ccc(C(=N)N)cc1 [drawing 793] |  | 60% | 40% |  | 
Cc1cc(COc2ccc(C(=N)N)cc2F)cc(COc2ccc(C(=N)N)cc2F)c1 [drawing 794] | 30% |  |  |  | 
CO/N=C(\N)c1ccc(OCc2cc(C)cc(COc3ccc(/C(N)=N\OC)cc3)c2)cc1 [drawing 795] |  |  |  |  | MIC (E. coli): 100 µM
CCCCc1cc(OCc2ccc(C(=N)N)cc2)cc(OCc2ccc(C(=N)N)cc2)c1 [drawing 796] |  |  |  |  | inhibition at 10 µM (E. coli; read-out: Growth inhibition of E. coli at 10 μM, compound alone at 10 μM): 20%
